# Where two headings read alike, the source gives them in different places.
# Assays:
# [1] = Long-term plasma exposure after a single SC ANA dose (56-day follow-up), plasma LC-MS/MS; assay type: in vivo, Sprague-Dawley rats; settings: for AUC(0-inf) / AUC(0-t) / half-life / Cmax / Tmax: Sprague-Dawley, rat, male SD rats, n = 5, 56-day follow-up; for Cmax: read-out: Cmax; for Tmax: read-out: Tmax
# Protocol: To monitor the sustained release of SC ANA in the long term, 10 male SD rats were treated with a single dose of either 7.0 mg/kg (n = 5) or 35.0 mg/kg (n = 5). The rats were purchased from SPF Biotechnology Co. Ltd. (Beijing, China). Animals were acclimated to the test facility for at least three days, during which their general health was checked by veterinary staff or other authorized personnel. Animals were kept in polycarbonate cages containing absorbent corncob bedding, with a maintained temperature range of +20-25 °C and a 12-h light/dark cycle. Animals had access to food and drinking water ad libitum during acclimation and the experiment. At the end of the study, the rats were euthanized by exposure to an increasing concentration of CO2. […] The SC formulation was prepared by dissolving micronized ANA (5 μm particle size) in an oily triglyceride ester of saturated caprylic and capric fatty acids and glycerol (Miglyol® 810 N, IOI Oleo GmbH, Hamburg, Germany). […] To evaluate plasma concentration-time profiles, blood samples were collected from the jugular vein in EDTA tubes and stored at -70 °C until further analysis. […] In the second PK analysis in rats with a longer follow-up time, blood samples were collected at 0, 30 min, 1 […], and 56 d after dosage. SD rat plasma was analyzed for ANA, 3-OH-ANA, and RL603 concentrations by Pharmaron (Beijing, China). ANA, 3-hydroxy-anagrelide (CAS No. 733043-41-9, Cat. No. sc-206647, Santa Cruz Biotechnology, Inc., Dallas, TX), and RL603 (CAS No. 327602-34-6, Cat. No. sc-391661, Santa Cruz Biotechnology, Inc., Dallas, TX) were used as reference items in calibration standards and quality control (QC) samples. The HPLC and the MS/MS (LCMS-8060) instruments were both from SHIMADZU (Kyoto, Japan), and the column used was a Raptor Biphenyl column (2.7 μm, 50 × 2.1 mm, Restek, Bellefonte, PA). The desired serial concentrations of working solutions were achieved by diluting analyte stock solution with 50% acetonitrile in water. […] QC samples at 0.5, 1, 2, 50, and 800 ng/mL were prepared independently of those used for the calibration curves. These QC samples were prepared on the day of analysis in the same way as calibration standards. Carbamazepine (CAS No. 298-46-4, Sigma-Aldrich, St. Louis, MO) was used as an internal standard for all analytes. Altogether, 55 μL of standards, 55 μL of QC samples, and 55 μL of test samples (comprising 50 μL of plasma and 5 μL of blank solution) were added to 200 μL of acetonitrile containing an internal standard mixture to precipitate protein. The samples were then vortexed for 30 seconds. After centrifugation at 4000 × g (+4 °C) for 5 min, the supernatant was diluted threefold with water, and 2 μL of the diluted supernatant was injected into the LC/MS/MS system for quantitative analysis. The transitions were 256.00-198.90 m/z for anagrelide hydrochloride, 272.00-198.95 m/z for 3-hydroxy anagrelide, 216.00-198.95 m/z for RL603, and 237.20-194.10 m/z for carbamazepine. […] Plasma drug concentration-time profiles were drawn by the average plasma concentrations at specific time points using Microsoft Excel (Redmond, WA). […] Certara, Princeton, NJ) software. Averages of each variable were used when PK values were compared.
# UZLX-GIST2B = test system: UZLX-GIST2B; parameters: method as in Pulkka et al., 2019; settings: 5 mg/kg PO BID, in 11 days; ref Pulkka et al., 2019; cited from earlier work
# [2] = Petrides et al., 2009, 2018, cited from earlier work
# [3] = Clinical observation during the rat PK experiments; assay type: in vivo, Sprague-Dawley rats; settings: single dose IV 0.5, PO 2.5, SC 1.0, 7.0 or 35.0 mg/kg, SD rats
# Protocol: To compare PK values of the three different administration routes, 11 male Sprague-Dawley® (SD) rats (6–8 weeks old) were administered a single dose of ANA either via IV injection (n = 3, 0.5 mg/kg), PO (n = 3, 2.5 mg/kg), or SC injection (n = 5, 1.0 mg/kg). To monitor the sustained release of SC ANA in the long term, 10 male SD rats were treated with a single dose of either 7.0 mg/kg (n = 5) or 35.0 mg/kg (n = 5). The rats were purchased from SPF Biotechnology Co. Ltd. (Beijing, China). Animals were acclimated to the test facility for at least three days, during which their general health was checked by veterinary staff or other authorized personnel. Animals were kept in polycarbonate cages containing absorbent corncob bedding, with a maintained temperature range of +20–25 °C and a 12-h light/dark cycle. Animals had access to food and drinking water ad libitum during acclimation and the experiment. At the end of the study, the rats were euthanized by exposure to an increasing concentration of CO2.
# [4] = analyte in plasma after single SC ANA dose 7 mg/kg
# [5] = analyte in plasma after single SC ANA dose 35 mg/kg
compound,measurement,setting,value
"O=C1CN2Cc3c(ccc(Cl)c3Cl)N=C2N1 [Anagrelide, imidazo‐[2,1‐b] quinazolin‐2[3H]‐one, 6,7‐dichloro‐1,5‐dihydro, monohydro‐chloride]",AUC(0-inf),[1]; [4],1570 ± 388 ng·h/mL
same,AUC(0-t),[1]; [4],1460 ± 148 ng·h/mL
same,half-life,[1]; [4],293 h
same,Cmax,[1]; [4],6.78 ± 1.86 ng/mL
same,Tmax,[1]; [4],1 h
same,AUC(0-inf),[1]; [5],9480 ± 5270 ng·h/mL
same,AUC(0-t),[1]; [5],6350 ± 666 ng·h/mL
same,half-life,[1]; [5],336 h
same,Cmax,[1]; [5],21.8 ± 8.62 ng/mL
same,Tmax,[1]; [5],2.2 ± 1.64 h
same,time plasma concentrations were detected after a single administration,[1]; single SC administration in rats (7 or 35 mg/kg),up to 56 days
same,tumor response in the same PDX model,UZLX-GIST2B,significant tumor regression
same,time of peak plasma concentration,"[2]; after PO drug administration, ref Gaver et al., 1981",approximately one hour
same,bioavailability,"[2]; taken orally, ref Spencer & Brogden, 1994",approximately 70%
same,clinical symptoms,[3],No abnormal clinical symptoms were observed
